Here are results for 35 compounds from patent US10961202B2, “Bis-benzimidazole compounds and methods of using the same” (THE SCRIPPS RESEARCH INSTITUTE, priority 2017, dated 2021).

For one experiment, the system named is r(CUG)12-MBNL1 complex. Kind of experiment: Inhibition of the r(CUG)12-MBNL1 complex measured by TR-FRET. The format is biochemical. To be noted: 80 nM RNA, 60 nM MBNL1-His6.
Experiment [1] deals with MBNL1 exon 5 inclusion in DM1 myotubes. Nature of the experiment: Myotube splicing rescue assay (MBNL1 exon 5 inclusion). The format is cell-based, human. To be noted: 48-hour incubation.

As for `CCN(CC)CCNC(=O)c1ccc2nc(-c3ccc(-c4nc5ccc(C(=O)NCCN(CC)CC)cc5[nH]4)cc3)[nH]c2c1` [Compound 33], in the experiment on r(CUG)12-MBNL1 complex (Table L), half-maximal inhibition (IC50) was put at 8.1 µM. Also, the “MBNL1 % splicing rescue at 10 μM” value in experiment [1] came out at 16.4%.

Turning to `CN(C)CCSc1ccc2nc(-c3ccc(-c4nc5ccc(SCCN(C)C)cc5[nH]4)cc3)[nH]c2c1` [Compound 59, 2,2′-((2,2′-(1,4-phenylene)bis(1H-benzo[d]imidazole-6,2-diyl))bis(sulfanediyl))bis(N,N-dimethylethanamine)], the IC50 in the experiment on r(CUG)12-MBNL1 complex (Table L) was 10.8 µM. In addition, the “MBNL1 % splicing rescue at 10 μM” value in experiment [1] was −17.6%.

In turn, `CN(C)CCCOc1ccc2nc(-c3ccc(-c4nc5ccc(OCCCN(C)C)cc5[nH]4)c(O)c3)[nH]c2c1` [Compound 256, 2,5-bis(6-(3-(dimethylamino)propoxy)-1H-benzo[d]imidazol-2-yl)phenol] registered an IC50 with r(CUG)12-MBNL1 complex (Table M) of 10.7 µM. Moreover, the “MBNL1 % splicing rescue at 10 μM” value in experiment [1] is given as 90.6%.

With `C[N+](C)(C)CCOC(=O)c1ccc2nc(-c3ccc(-c4nc5ccc(C(=O)OCC[N+](C)(C)C)cc5[nH]4)cc3)[nH]c2c1` [Compound 55, 2,2′-((2,2′-(1,4-phenylene)bis(1H-benzo[d]imidazole-6,6′-carbonyl))bis(oxy))bis(N,N,N-trimethylethanaminium) chloride], 4.2 µM corresponded to half-maximal inhibition in the experiment on r(CUG)12-MBNL1 complex (Table L) (IC50). Moreover, the “MBNL1 % splicing rescue at 10 μM” value in experiment [1] was 12.0%.

In turn, `CN1CC[C@@H](NC(=O)c2ccc(-c3nc4cc(-c5ccc6[nH]c(-c7ccc(C(=O)N[C@@H]8CCN(C)C8)cc7)nc6c5)ccc4[nH]3)cc2)C1` [Compound 339] registered an IC50 in the experiment on r(CUG)12-MBNL1 complex (Table M) of 5.96 µM. Also, the “MBNL1 % splicing rescue at 1 μM” value in experiment [1] (1 μM) was −3.2%. In experiment [1], the “MBNL1 % splicing rescue at 10 μM” value was 1.8%.

Regarding `CN(C)CCNC(=O)c1ccc2nc(-c3ccc4cc(-c5nc6ccc(C(=O)NCCN(C)C)cc6[nH]5)ccc4c3)[nH]c2c1` [Compound 462], in experiment [1], the “MBNL1 % splicing rescue at 10 μM” value is −2.7%.

`CN(CC(=O)NCCN1CCN(CCNC(=O)c2ccc3nc(-c4ccc(-c5nc6ccc(C(=O)NCCN7CCCCC7)cc6[nH]5)cc4)[nH]c3c2)CC1)CC(=O)NCCN1CCN(CCNC(=O)c2ccc3nc(-c4ccc(-c5nc6ccc(C(=O)NCCN7CCCCC7)cc6[nH]5)cc4)[nH]c3c2)CC1` [Compound 405]: in experiment [1], the “MBNL1 % splicing rescue at 10 μM” value is reported as −2.5%.

Turning to `CN(C)CCCOc1ccc2nc(-c3ccc(-c4nc5ccc(OCCCN(C)C)cc5[nH]4)c(N)c3)[nH]c2c1` [Compound 291, 3,3′-(((2-amino-1,4-phenylene)bis(1H-benzo[d]imidazole-2,6-diyl))bis(oxy))bis(N,N-dimethylpropan-1-amine)], the IC50 with r(CUG)12-MBNL1 complex (Table M) was found to be 61.5 µM.

`C#CCCNC(=O)CCCOc1ccc2[nH]c(-c3ccc(-c4nc5cc(OCCCN(C)C)ccc5[nH]4)cc3)nc2c1` [Compound 321] gave an IC50 with r(CUG)12-MBNL1 complex (Table M) of 22.4 µM.

With `CN(C)CCOc1ccc2nc(-c3ccc(-c4nc5ccc(OCCN(C)C)cc5[nH]4)cc3)[nH]c2c1` [Compound 57, 2,2′-((2,2′-(1,4-phenylene)bis(1H-benzo[d]imidazole-6,2-diyl))bis(oxy))bis(N,N-dimethylethanamine)], the IC50 in the experiment on r(CUG)12-MBNL1 complex (Table L) was found to be 119 µM.

In the experiment with r(CUG)12-MBNL1 complex (Table M), `c1cc2nc(-c3ccc(-c4nc5ccc(OCCN6CCCC6)cc5[nH]4)cc3)[nH]c2cc1OCCN1CCCC1` [Compound 203] gave an IC50 of 103 µM.

Compound `CN(C)CCNC(=O)c1ccc(-c2nc3cc(-c4ccc5[nH]c(-c6ccc(OCCCC#N)cc6)nc5c4)ccc3[nH]2)cc1` [Compound 394] gave an IC50 with r(CUG)12-MBNL1 complex (Table M) of 19 µM.

In turn, `Nc1ccc2nc(-c3ccc(-c4ccc(-c5nc6ccc(N)cc6[nH]5)cc4)cc3)[nH]c2c1` [Compound 80] registered an IC50 with r(CUG)12-MBNL1 complex (Table L) of 31.3 µM.

Take `CN(C)CCNC(=O)c1ccc(-c2nc3ccc(-c4ccc5nc(-c6ccc(C(=O)N(C)CCCN(C)CCCN(C)C(=O)c7ccc(-c8nc9ccc(-c%10ccc%11nc(-c%12ccc(C(=O)NCCN(C)C)cc%12)[nH]c%11c%10)cc9[nH]8)cc7)cc6)[nH]c5c4)cc3[nH]2)cc1` [Compound 449]: the IC50 in the experiment with r(CUG)12-MBNL1 complex (Table M) amounted to 2.5 µM.

Turning to `C[C@@H](NC(=O)CNCCNC(=O)c1ccc(-c2nc3cc(-c4ccc5[nH]c(-c6ccc(OCCCN(C)C)cc6)nc5c4)ccc3[nH]2)cc1)C(=O)N[C@H](C)C(=O)N[C@H](C)C(=O)N[C@H](C)C(=O)N(CCNC(=O)c1ccc(-c2nc3cc(-c4ccc5[nH]c(-c6ccc(OCCCN(C)C)cc6)nc5c4)ccc3[nH]2)cc1)CC(N)=O` [Compound 448], in the experiment on r(CUG)12-MBNL1 complex (Table M), the IC50 was determined as 3.5 µM.

Regarding `CN(CCNC(=O)c1ccc2nc(-c3ccc(-c4nc5ccc(C(=O)NCCN(C)C[C@H](O)[C@@H](O)[C@H](O)[C@H](O)CO)cc5[nH]4)cc3)[nH]c2c1)CC(O)C(O)C(O)C(O)CO` (stereo in doubt) [Compound 175, 2,2′-(1,4-phenylene)bis(N-(2-(methyl((2S,3R,4R,5R)-2,3,4,5,6-pentahydroxyhexyl)amino)ethyl)-1H-benzo[d]imidazole-6-carboxamide)], the IC50 with r(CUG)12-MBNL1 complex (Table M) came to 49.1 µM.

`CN(C)CCCNC(=O)c1ccc2nc(-c3ccc(-c4nc5ccc(OCCCN(C)C)cc5[nH]4)cc3)[nH]c2c1` [Compound 239] returned an IC50 in the experiment on r(CUG)12-MBNL1 complex (Table M) of 24.8 µM.

`CN(C)Cc1ccc(Oc2ccc3nc(-c4ccc(-c5nc6ccc(Oc7ccc(CN(C)C)cc7)cc6[nH]5)cc4)[nH]c3c2)cc1` [Compound 242] had an IC50 in the experiment with r(CUG)12-MBNL1 complex (Table M) of 47.7 µM.

Consider `CN(C)CCNC(=O)c1ccc(-c2nc3ccc(-c4ccc5nc(-c6ccc(C(=O)NCCOCCOCc7cn(CCCNCC(=O)N8CCCC8C(=O)N8CCC[C@H]8C(=O)N(CCCn8cc(COCCOCCNC(=O)c9ccc(-c%10nc%11ccc(-c%12ccc%13nc(-c%14ccc(C(=O)NCCN(C)C)cc%14)[nH]c%13c%12)cc%11[nH]%10)cc9)nn8)CC(N)=O)nn7)cc6)[nH]c5c4)cc3[nH]2)cc1` (some centres unmarked) [Compound 437], for which the IC50 with r(CUG)12-MBNL1 complex (Table M) came to 7.5 µM.

The compound `CN(C)CCCOc1ccc2nc(-c3ccc(-c4nc5ccc(OCCCC#N)cc5[nH]4)cc3)[nH]c2c1` [Compound 241, 4-((2-(4-(6-(3-(dimethylamino)propoxy)-1H-benzo[d]imidazol-2-yl)phenyl)-1H-benzo[d]imidazol-6-yl)oxy)butanenitrile] yielded an IC50 with r(CUG)12-MBNL1 complex (Table M) of 64.7 µM.

Regarding `CN1CC[C@@H](Oc2ccc(-c3nc4cc(-c5ccc6[nH]c(-c7ccc(O[C@@H]8CCN(C)C8)cc7)nc6c5)ccc4[nH]3)cc2)C1` [Compound 373], the midpoint of inhibition in the experiment with r(CUG)12-MBNL1 complex (Table M), the IC50, lay at 29.2 µM.

`N=C(N)c1ccc(-c2nc3cc(-c4ccc5[nH]c(-c6ccc(C(=N)N)cc6)nc5c4)ccc3[nH]2)cc1` [Compound 99]: 15.2 µM corresponded to half-maximal inhibition in the experiment on r(CUG)12-MBNL1 complex (Table L) (IC50).

`CN(C)C[C@H]1CC[C@H](COc2ccc3nc(-c4ccc(-c5nc6ccc(OC[C@H]7CC[C@H](CN(C)C)CC7)cc6[nH]5)cc4)[nH]c3c2)CC1` [Compound 218, 1,1′-((1r,1′r,4r,4′r)-(((1,4-phenylenebis(1H-benzo[d]imidazole-2,6-diyl))bis(oxy))bis(methylene))bis(cyclohexane-4,1-diyl))bis(N,N-dimethylmethanamine)] registered an IC50 with r(CUG)12-MBNL1 complex (Table M) of 68.7 µM.

The compound `NCCNC(=O)c1ccc2nc(-c3ccc(-c4nc5ccc(C(=O)NCCN)cc5[nH]4)cc3)[nH]c2c1` [Compound 30, 2,2′-(1,4-phenylene)bis(N-(2-aminoethyl)-1H-benzo[d]imidazole-6-carboxamide)] had an IC50 with r(CUG)12-MBNL1 complex (Table L) of 18.3 µM.

On to `CN1CCC[C@H]1COc1ccc2nc(-c3ccc(-c4nc5ccc(OC[C@@H]6CCCN6C)cc5[nH]4)cc3)[nH]c2c1` [Compound 199], for which the IC50 in the experiment on r(CUG)12-MBNL1 complex (Table M) turned out to be 47.8 µM.

In turn, `COc1c(-c2nc3ccc(SCCCN(C)C)cc3[nH]2)ccc(-c2nc3ccc(SCCCN(C)C)cc3[nH]2)c1OC` [Compound 300, 3,3′-(((2,3-dimethoxy-1,4-phenylene)bis(1H-benzo[d]imidazole-2,6-diyl))bis(sulfanediyl))bis(N,N-dimethylpropan-1-amine)] came in with an IC50 with r(CUG)12-MBNL1 complex (Table M) above 200 µM.

Turning to `OCCCCOc1ccc2nc(-c3ccc(-c4nc5ccc(OCCCCO)cc5[nH]4)cc3)[nH]c2c1` [Compound 225], 154 µM corresponded to half-maximal inhibition in the experiment on r(CUG)12-MBNL1 complex (Table M) (IC50).

Turning to `CN(C)CCNC(=O)c1ccc(-c2nc3cc(-c4ccc5[nH]c(-c6ccc(C(=O)NCCCCNC(=O)c7ccc(-c8nc9cc(-c%10ccc%11[nH]c(-c%12ccc(C(=O)NCCN(C)C)cc%12)nc%11c%10)ccc9[nH]8)cc7)cc6)nc5c4)ccc3[nH]2)cc1` [Compound 420], in the experiment with r(CUG)12-MBNL1 complex (Table M), the IC50 came to 6.32 µM.

`CN(C)CCCOc1cccc2nc(-c3ccc(-c4nc5cccc(OCCCN(C)C)c5[nH]4)cc3)[nH]c12` [Compound 215, 3,3′-((2,2′-(1,4-phenylene)bis(1H-benzo[d]imidazole-7,2-diyl))bis(oxy))bis(N,N-dimethylpropan-1-amine)] came in with an IC50 in the experiment on r(CUG)12-MBNL1 complex (Table M) of 20.5 µM.

Regarding `C[C@@H](CN(C)C)NC(=O)c1ccc(-c2nc3cc(-c4ccc5[nH]c(-c6ccc(C(=O)N[C@@H](C)CN(C)C)cc6)nc5c4)ccc3[nH]2)cc1` [Compound 389], it took 34.2 µM to reach half-maximal inhibition with r(CUG)12-MBNL1 complex (Table M) (IC50).

For `CN(C)CC#CCOc1ccc2nc(-c3ccc(-c4nc5ccc(OCC#CCN(C)C)cc5[nH]4)cc3)[nH]c2c1` [Compound 226, 4,4′-((2,2′-(1,4-phenylene)bis(1H-benzo[d]imidazole-6,2-diyl))bis(oxy))bis(N,N-dimethylbut-2-yn-1-amine)], the IC50 in the experiment with r(CUG)12-MBNL1 complex (Table M) is above 200 µM.

In turn, `CNCCNC(=O)c1ccc(-c2nc3cc(-c4ccc5[nH]c(-c6ccc(C(=O)NCCN(C)C)cc6)nc5c4)ccc3[nH]2)cc1` [Compound 110, N-(2-(dimethylamino)ethyl)-4-(2′-(4-((2-(methylamino)ethyl)carbamoyl)phenyl)-1H,1′H-[5,5′-bibenzo[d]imidazol]-2-yl)benzamide] registered an IC50 with r(CUG)12-MBNL1 complex (Table L) of 6.9 µM.

Consider `CC(=O)Nc1ccc2nc(-c3ccc(-c4nc5ccc(N)cc5[nH]4)cc3)[nH]c2c1` [Compound 4, N-(2-(4-(5-amino-1H-benzo[d]imidazol-2-yl)phenyl)-1H-benzo[d]imidazol-5-yl)acetamide], for which the concentration for half-maximal inhibition (IC50) with r(CUG)12-MBNL1 complex (Table L) is above 200 µM.

In turn, `CN(C)CCCNC(=O)c1ccc2nc(-c3ccc(-c4nc5ccc(C(=O)NCCCN(C)C)cc5[nH]4)cc3)[nH]c2c1` [Compound 36, 2,2′-(1,4-phenylene)bis(N-(3-(dimethylamino)propyl)-1H-benzo[d]imidazole-6-carboxamide)] returned an IC50 in the experiment with r(CUG)12-MBNL1 complex (Table L) of 7.7 µM.

Consider `CN(C)CCOc1ccc(-c2nc3cc(-c4ccc5[nH]c(-c6cccc(OCCN(C)C)c6)nc5c4)ccc3[nH]2)cc1` [Compound 355], for which the IC50 with r(CUG)12-MBNL1 complex (Table M) was determined as 11.2 µM.
